Reference: patent US20260088132A1, “CHEMICAL PAINTING” (The Trustees of Columbia University in the City of New York, priority 2023, published 2026)
Where a name gives a salt, the structure may show the parent alone.

Assays:
Assay type in all cases: cell-based, human
MDA-MB-231 cells [1] = assay: Chemical Painting: single-cell metabolic responses by FTIR imaging with three IR-active vibrational probes; conditions: drug at its IC50 concentration, 48 hrs, compared with control
Experimental: The first step is to add the three vibrational probes and the tested drug at its IC50 concentration to the cell culture media and co-cultured for 48 hrs. After that, cells are fixed and air-dried. Then Fourier transformed infrared (FTIR) imaging, a modality of MIR imaging, was performed to collect the full spectral data of cells. The collection speed is around 2 cells/second for human cancer cells with sufficient co-scans (˜64 scans). In the following data analysis, quality test, baseline correction and data normalization were included for data preprocessing (Methods). Next, single-cell segmentation was performed with open-source software CellProfiler to generate masks. These masks can be further used to extract single-cell IR spectrum from the MIR imaging data, forming the single-cell biochemical profile. We then introduced a series of analytical methods for the downstream analysis, including machine learning, novelty detection and statistical methods to map cell phenotypes and identify drug MoAs. Overall, the workflow of Chemical Painting is straightforward in experimental operations and effected in single-cell data analysis, which laid the foundation for this method to reveal valuable insights toward phenotypic profiling and potential drug discovery.
Systematic sensitivity and generalizability evaluation of Chemical Painting toward a broad range of drugs: It remains unknown whether our method has sufficient sensitivity to differentially discriminate cell responses to different drugs. To evaluate its sensitivity we tested 13 drugs belonging to 9 different drug MoAs. These drugs can be separated into two main panels: one consists of drugs that inhibit general metabolism; another one contains drugs targeting specific proteins or interfering with particular metabolic pathways. The single-cell metabolic responses toward different drug treatment were visualized in the 3D scatter plots where x-axis represents saturated FA metabolism (azido-PA/CH2), y-axis represents unsaturated FA metabolism (d34OA/CH2), and z-axis represents protein synthesis (^13C amide I/(^13C amide I+^12C amide I)). The use of ratios is meant for more accurate quantification of metabolic activities. Each dot represents the metabolic responses of an individual cell in the plots.
(§1) Sample preparation for drug-treated cells with labeling. MDA-MB-231 cells were seeded on clean CaF2 substrates with 5×10^4 cells per well in cell culture media (DMEM, 10% FBS, 1% penicillin) overnight. Then the culture media was replaced by ^13C-amino acids DMEM with 50 μM azido-palmitic acid, 50 μM d34 oleic acid, either single drug at its IC50 concentration or drug combinations at chosen concentrations. Drugs were prepared in 100% DMSO and diluted to 0.1% DMSO in labeling media. For the control group, only cell labeling media with 0.1% DMSO was added (without any drugs). Cells were treated for 48 hrs. After that, cells were fixed by 4% PFA at room temperature for 15 min and washed three times with PBS buffer and five times with dd-H2O. The samples were then air-dried before imaging.
(§2) FTIR imaging. Agilent Cary 620 Imaging FTIR equipped with an Agilent 670-IR spectrometer and 128×128-pixels FPA mercury cadmium telluride (MCT) detector was used in the transmission mode. A background spectrum was collected on a clean CaF2 substrate using 128 scans at 8 cm-1 spectral resolution. Cell spectra were recorded using 64-128 scans at 8 cm-1 spectral resolution. A ×25 IR objective (pixel size, 3.3 um, 0.81 numerical aperture (NA)) was used for cell imaging.
Data preprocessing. […]

MDA-MB-231 cells [2] = assay: Novelty detection of drug MoA on single-cell Chemical Painting data (LDA, Mahalanobis distance, isolation forest); conditions: test compounds; for Prediction: MoA predicted as known class or novel; for Mean score: dynamic range [1, −1], below 0.1 detected as novel; for Outlier %: single-cell data predicted as outliers (novel)
Source text: We specifically designed an algorithm for Chemical Painting to identify drugs with novel MoAs, using the dataset and model in drug MoA prediction as an annotated reference. In this algorithm, the first step is to calculate the Mahalanobis distance between single-cell data from test compound and each reference class in the trained LDA model. The class with the minimum distance represents the known drug closest to the test compound. Next, isolation forest, is introduced to determine whether the test compound is novel to the selected known drug class. The prediction output in this step is 1 as inliers (known) and −1 as outliers (novel) for each single-cell data from the test compound. […] Test compound with a mean prediction score below the threshold value is detected as novel.
as §1, §2
Machine learning. The tests of all the machine learning classifiers were performed using Python (Scikit-learn). Specifically, single-cell data was split into 70% training and 30% testing with labels corresponding to drug MoAs. The hyper-parameters of each classifier were carefully tuned using RandomizedSearchCv in Scikit-learn. The performances of these classifiers were evaluated in the testing dataset using accuracy as the main metric. To test the performance of classifiers on batch effects, single-cell data collected from different batches were loaded as another testing dataset. For feature importances of LDA classifier, permutation feature importance (Scikit-learn) was used. The intrinsic feature importance values from random forest classifier were also extracted.
Novelty detection algorithm. In the first step, the Mahalanobis distances between the test compound and each reference class in the annotated dataset were calculated by home-built codes in python. Drug class with minimum distance was selected. Next, isolation forest, which is available in Python, was imported to predict whether single-cell data from the test compound is known (inliers) or novel (outliers) to the selected drug class. The mean of the prediction results from single-cell data is reported as mean prediction score.

MDA-MB-231 cells [3] = assay: Cell viability assay (Alamar blue) for drug IC50; conditions: single drug, 48 hrs; for half of the IC50 values: concentration added in combination groups
Source text: Another aspect to consider is how to ensure the cells are in a similar state under different categories of drug treatments. To achieve this, we measured the half maximal inhibitory concentration (IC50) of different drugs separately by cell viability assays in 48 hrs, in agreement with the probe culturing time. This method is commonly used in pharmaceutical studies to compare the effect of various products. Besides the experimental operations, data analysis is vital to the obtained large-scale data to map cell phenotypes after drug perturbation. We thus built a complete analytical pipeline for Chemical Painting, including data preprocessing, single-cell segmentation, single-cell biochemical profile extraction and downstream analysis.
Cell viability assay and drug IC50 calculus. The IC50 values of the drugs were determined by Alamar blue assay. Cells were seeded at 10,000 per well in 96-well plates. After 24 h, the cells were washed twice with phosphate buffered saline (PBS) and treated with drugs at different concentrations in cell culture media for 48 hrs. Each drug concentration has 6-8 replicates. After the drug treatments, cells were washed with PBS twice and the cell viability was determined by Alamar blue assay following the manufacturer's protocol (Invitrogen) using plate reader. The IC50 values were determined by fitting the data using a dose response model with variable Hill slope built in Prism.

Compound | protein synthesis (13C amide I/(13C amide I+12C amide I)) (MDA-MB-231 cells [1]) | saturated FA metabolism (azido-PA/CH2) (MDA-MB-231 cells [1]) | unsaturated FA metabolism (d34OA/CH2) (MDA-MB-231 cells [1]) | Prediction (MDA-MB-231 cells [2]) | Mean score (MDA-MB-231 cells [2]) | Outlier % (MDA-MB-231 cells [2]) [%] | other results
CC(C)C[C@H](NC(=O)[C@H](Cc1ccccc1)NC(=O)c1cnccn1)B(O)O [bortezomib] | more evidently decreased | reduced | reduced | – | – | – | –
CC[C@H]1CN2CCc3cc(OC)c(OC)cc3[C@@H]2C[C@@H]1C[C@H]1NCCc2cc(OC)c(OC)cc21 [Emetine, emetine] | – | – | – | Protein | 0.6208 | 18.96 | Mean score (MDA-MB-231 cells [2]; listed as emetine): high
COc1cccc2c1C(=O)c1c(O)c3c(c(O)c1C2=O)C[C@@](O)(C(C)=O)C[C@@H]3O[C@H]1C[C@H](N)[C@H](O)[C@H](C)O1 [Daunorubicin, Daunorubicin hydrochloride] | – | – | – | DNA intercalation | – | 7.515 | Mean score (MDA-MB-231 cells [2]; hydrochloride): 0.8497; Mean score (MDA-MB-231 cells [2]; listed as daunorubicin, hydrochloride): high
O=C(c1cc(Cc2n[nH]c(=O)c3ccccc23)ccc1F)N1CCN(C(=O)C2CC2)CC1 [olaparib] | significantly reduced | significantly reduced | significantly reduced | – | – | – | –
CCC/C=C/C/C=C/C=C/C=N/NN=O [triacsin-C, triacsin C] | remained at a similar level compared with the control group | significant decreases | significant decreases | – | – | – | –
CCC(=O)CCCCC[C@@H]1NC(=O)[C@H]2CCCCN2C(=O)[C@H]([C@@H](C)CC)NC(=O)[C@H](Cc2cn(OC)c3ccccc23)NC1=O [Apicidin] | – | – | – | – | −0.5289 | 76.45 | –
COc1cccc2c1C(=O)c1c(O)c3c(c(O)c1C2=O)C[C@@](O)(C(=O)CO)C[C@@H]3O[C@H]1C[C@H](N)[C@H](O)[C@H](C)O1 [doxorubicin, doxorubicin hydrochloride] | largely inhibited | largely inhibited | largely inhibited | – | – | – | –
CS(=O)(=O)CCNCc1ccc(-c2ccc3ncnc(Nc4ccc(OCc5cccc(F)c5)c(Cl)c4)c3c2)o1 [lapatinib] | – | – | – | – | – | – | IC50 (MDA-MB-231 cells [3]; Homo sapiens, MDA-MB-231, cell viability): 2.14 µM; half of the IC50 values (MDA-MB-231 cells [3]): 1.12 µM
CC(=O)O[C@H]1C(=O)[C@@]2(C)[C@H]([C@H](OC(=O)c3ccccc3)[C@]3(O)C[C@H](OC(=O)[C@H](O)[C@@H](NC(=O)c4ccccc4)c4ccccc4)C(C)=C1C3(C)C)[C@]1(OC(C)=O)CO[C@@H]1C[C@@H]2O [Taxol] | – | – | – | Novel | −0.5052 | 75.26 | –
TVB-3166 | slightly decreased | significantly reduced | significantly reduced | – | – | – | –
CC[C@]1(O)C[C@H]2CN(CCc3c([nH]c4ccccc34)[C@@](C(=O)OC)(c3cc4c(cc3OC)N(C=O)[C@H]3[C@@](O)(C(=O)OC)[C@H](OC(C)=O)[C@]5(CC)C=CCN6CC[C@]43[C@@H]65)C2)C1 [Vincristine] | – | – | – | Novel | −0.9466 | 97.33 | –
CO[C@H]1C[C@@H]2CC[C@@H](C)[C@@](O)(O2)C(=O)C(=O)N2CCCC[C@H]2C(=O)O[C@H]([C@H](C)C[C@@H]2CC[C@@H](OCCO)[C@H](OC)C2)CC(=O)[C@H](C)/C=C(\C)[C@@H](O)[C@@H](OC)C(=O)[C@H](C)C[C@H](C)/C=C/C=C/C=C/1C [everolimus] | – | – | – | – | – | – | half of the IC50 values (MDA-MB-231 cells [3]): 14.5 µM
NC(=O)c1ccc(I)c([N+](=O)[O-])c1 [Iniparib, iniparib] | – | – | – | Novel | −0.9923 | 99.62 | Mean score (MDA-MB-231 cells [2]; listed as iniparib): quite negative
C[C@@H]1C[C@@H]([C@H](O)CC2CC(=O)NC(=O)C2)C(=O)[C@@H](C)C1 [cycloheximide] | much lower | – | – | – | – | – | –
